Reference: patent US20160045505A1, “COMPOUNDS AND COMPOSITIONS FOR THE TREATMENT OF PARASITIC DISEASES” (NOVARTIS AG, priority 2013, published 2016)
pEC50: −log10 of the molar value. Like-named read-outs stand apart in the source and are kept apart here.

Legend:
[1] = system: Leishmania donovani axenic amastigote parasites; assay: Leishmania donovani axenic amastigote proliferation assay (Cell TiterGlo luminescence, 2 day incubation); format: cell-based; details: Leishmania donovani, axenic amastigotes, inhibition of proliferation; read-out: L. donovani amastigotes EC50
[2] = system: L. donovani HU3 strain in mouse peritoneal macrophages; assay: Assay for proliferation of Leishmania parasites in infected mouse peritoneal macrophages (SybrGreen staining, high-content imaging, 5 days); format: cell-based, Leishmania donovani; details: Leishmania donovani, Peritoneal macrophage, L. donovani in mouse peritoneal macrophages, inhibition of proliferation; read-out: L. donovani Macrophage EC50
[3] = system: Trypanosoma cruzi amastigotes (Tulahuen strain expressing Lac-Z) cultured in 3T3 fibroblast cells; assay: microbe, parasite or virus in culture; format: cell-based; details: Trypanosoma cruzi, TULAHUEN
[4] = Fibroblast, T. cruzi amastigotes in 3T3 fibroblast cells, inhibition of proliferation, read-out: T cruzi EC50

SMILES | pEC50 [1] | pEC50 [2] | pEC50 [3, 4] | pEC50 ([3]; NIH3T3, 144 h, T. cruzi amastigotes in 3T3 cells, 6 day incubation, read-out: EC50)
CC(C)OC(=O)Nc1cnc2nc(-c3cc(NC(=O)c4ccc(F)o4)ccc3Cl)cn2c1 [Compound 1, Propan-2-yl N-{2-[2-chloro-5-(5-fluorofuran-2-amido)phenyl]imidazo[1,2-a]pyrimidin-6-yl}carbamate] | 7.06 | 6.61 | 7.52 | 7.52
CC(C)OC(=O)Nc1cnc2nc(-c3cc(NC(=O)N4CCCC4)ccc3Cl)cn2c1 [Compound 2, propan-2-yl N-(2-{2-chloro-5-[(pyrrolidin-1-yl)carbonylamino]phenyl}imidazo[1,2-a]pyrimidin-6-yl)carbamate] | 7.02 | 6.57 | 6.61 | –
CC(C)OC(=O)Nc1cnc2nc(-c3cccc(NC(=O)c4ccc(F)o4)c3)cn2c1 [Compound 3, propan-2-yl N-{2-[3-(5-fluorofuran-2-amido)phenyl]imidazo[1,2-a]pyrimidin-6-yl}carbamate] | 6.62 | 6.37 | 6.29 | –
CC(C)OC(=O)Nc1cnc2nc(-c3cc(NC(=O)c4ccc(C#N)o4)ccc3Cl)cn2c1 [Compound 48] | 7.09 | 6.86 | 6.80 | –
CC(C)OC(=O)Nc1cnc2nc(-c3cc(NC(=O)c4cnc(Cl)s4)ccc3Cl)cn2c1 [Compound 51] | 5.42 | 5.03 | 5.83 | –
COC(C)C(=O)Nc1ccc(Cl)c(-c2cn3cc(NC(=O)OC(C)C)cnc3n2)c1 (stereo not shown) [Compound 54] | 5.71 | 4.84 | 5.89 | –
CC(C)OC(=O)Nc1cnc2nc(-c3cc(NC(=O)C4CCCO4)ccc3Cl)cn2c1 (stereo not shown) [Compound 55] | 5.14 | 4.57 | 5.38 | –
CC(=O)OC(C)C(=O)Nc1ccc(Cl)c(-c2cn3cc(NC(=O)OC(C)C)cnc3n2)c1 (stereo not shown) [Compound 56] | 4.72 | < 4.30 | 4.94 | –
CC(C)OC(=O)Nc1cnc2nc(-c3cc(NC(=O)C4CCCCO4)ccc3Cl)cn2c1 (stereo not shown) [Compound 57] | 6.06 | 5.53 | 6.39 | –
CC(C)OC(=O)Nc1cnc2nc(-c3cc(NC(=O)C(C)OCC(F)(F)F)ccc3Cl)cn2c1 (stereo not shown) [Compound 58] | 4.85 | 4.98 | 5.34 | –
Cc1nc(C(=O)Nc2ccc(Cl)c(-c3cn4cc(NC(=O)OC(C)C)cnc4n3)c2)c[nH]1 [Compound 59] | < 4.60 | < 4.30 | < 4.70 | –
CC(C)OC(=O)Nc1cnc2nc(-c3cc(NC(=O)c4ccc(F)o4)ccc3F)cn2c1 [Compound 63] | 7.05 | 6.65 | 6.91 | –
CC(C)OC(=O)Nc1cnc2nc(-c3cc(NC(=O)c4ccc(F)s4)ccc3F)cn2c1 [Compound 67] | 6.17 | 5.95 | 6.87 | –
Cc1cc(C(=O)Nc2ccc(F)c(-c3cn4cc(NC(=O)OC(C)C)cnc4n3)c2)n[nH]1 [Compound 77] | 5.03 | < 4.30 | < 4.70 | –
CC(C)OC(=O)Nc1cnc2nc(-c3cc(NC(=O)[C@@H](N)c4ccccc4)ccc3F)cn2c1 [Compound 84] | < 4.60 | 5.00 | 5.06 | –
CC(C)OC(=O)Nc1cnc2nc(-c3cc(NC(=O)c4ncc[nH]4)ccc3F)cn2c1 [Compound 92] | < 4.60 | < 4.54 | < 4.70 | –
CC(C)OC(=O)Nc1cnc2nc(-c3cc(NC(=O)c4cnc(C5CC5)o4)ccc3F)cn2c1 [Compound 108] | 6.11 | 5.62 | 5.92 | –
Cc1cnoc1C(=O)Nc1ccc(F)c(-c2cn3cc(NC(=O)OC(C)C)cnc3n2)c1 [Compound 111] | < 4.60 | < 4.30 | < 4.70 | –
Cc1nc(C)c(C(=O)Nc2ccc(F)c(-c3cn4cc(NC(=O)C5CCCCO5)cnc4n3)c2)o1 (stereo not shown) [Compound 151] | 6.87 | 6.37 | 6.23 | –
Cc1nc(C)c(C(=O)Nc2ccc(F)c(-c3cn4cc(NC(=O)c5ccc(F)cn5)cnc4n3)c2)o1 [Compound 187] | 7.51 | < 4.30 | 6.85 | –
O=C(Nc1ccc(F)c(-c2cn3cc(Nc4ncccc4C(F)(F)F)cnc3n2)c1)N1CCCC1 [Compound 191] | 7.55 | 6.84 | 7.48 | –
CC(C)OC(=O)Nc1cnc2nc(-c3cc(NC(=O)N4CCN(C)CC4)ccc3Cl)cn2c1 [Compound 218] | < 4.60 | 4.50 | < 4.70 | –
CNC(=O)Nc1ccc(F)c(-c2cn3cc(NC(=O)OC(C)C)cnc3n2)c1 [Compound 220] | 6.22 | 5.30 | 5.86 | –
CC(C)OC(=O)Nc1cnc2nc(-c3cc(NC(=O)N4CCC[C@H]4C(N)=O)ccc3Cl)cn2c1 [Compound 262] | < 4.60 | < 4.30 | < 4.70 | –
CC(C)OC(=O)Nc1cnc2nc(-c3cc(NC(=O)N4CCC(NC(=O)OC(C)(C)C)C4)ccc3Cl)cn2c1 (stereo not shown) [Compound 268] | < 4.60 | 4.84 | 4.97 | –

SMILES | pEC50 [1] | pEC50 [2] | pEC50 [3, 4] | pEC50 ([3]; NIH3T3, 144 h, T. cruzi amastigotes in 3T3 cells, 6 day incubation, read-out: EC50)
CC(C)OC(=O)Nc1cnc2nc(-c3cc(NC(=O)N4CCCC4C)ccc3Cl)cn2c1 (stereo not shown) [Compound 272] | 5.77 | 5.47 | 5.89 | –
CC(C)OC(=O)Nc1cnc2nc(-c3cc(NC(=O)N4CCC(N5CCOCC5)C4)ccc3Cl)cn2c1 (stereo not shown) [Compound 273] | < 4.60 | < 4.30 | < 4.70 | –
CC(C)NC(=O)Nc1ccc(Cl)c(-c2cn3cc(NC(=O)OC(C)C)cnc3n2)c1 [Compound 277] | 5.16 | 4.97 | 5.41 | –
CC(C)OC(=O)Nc1cnc2nc(-c3cc(NC(=O)N4CCC4)ccc3Cl)cn2c1 [Compound 278] | 6.75 | 5.97 | 5.96 | –
CC(C)OC(=O)Nc1cnc2nc(-c3cc(NC(=O)N4CC(=O)C4)ccc3Cl)cn2c1 [Compound 279] | 5.61 | 5.02 | < 4.76 | –
CC(C)OC(=O)Nc1cnc2nc(-c3cc(NC(=O)N4CCC(C)(C(=O)O)C4)ccc3Cl)cn2c1 (stereo not shown) [Compound 280] | < 4.60 | < 4.38 | < 4.70 | –
CC(C)OC(=O)Nc1cnc2nc(-c3cc(NC(=O)N4CCC(=O)C4)ccc3Cl)cn2c1 [Compound 281] | 5.06 | < 4.43 | < 4.70 | –
CC(C)OC(=O)Nc1cnc2nc(-c3cc(NC(=O)N4CCCC4(C)C)ccc3Cl)cn2c1 [Compound 282] | < 4.60 | 5.00 | 5.13 | –
CC(C)OC(=O)Nc1cnc2nc(-c3cc(NC(=O)N4CC(F)C4)ccc3Cl)cn2c1 [Compound 283] | 6.61 | 6.14 | 5.88 | –
COC1CC(NC(=O)Nc2ccc(Cl)c(-c3cn4cc(NC(=O)OC(C)C)cnc4n3)c2)C1 (stereo not shown) [Compound 284] | < 4.60 | 4.77 | 4.89 | –
CC(C)OC(=O)Nc1cnc2nc(-c3cc(NC(=O)NC4CC4)ccc3Cl)cn2c1 [Compound 285] | 4.93 | 4.79 | 5.30 | –
CC(C)OC(=O)Nc1cnc2nc(-c3cc(NC(=O)N4CC(N(C)C(=O)OC(C)(C)C)C4)ccc3F)cn2c1 [Compound 293] | < 4.60 | < 4.42 | < 4.78 | –
CC(C)OC(=O)Nc1cnc2nc(-c3cc(NC(=O)N4CC5(COC5)C4)ccc3F)cn2c1 [Compound 294] | < 4.60 | < 4.35 | < 4.70 | –
CC(C)OC(=O)Nc1ccc(F)c(-c2cn3cc(NC(=O)OC(C)C)cnc3n2)c1 [Compound 302] | 6.52 | 6.23 | 6.87 | –
COCCOC(=O)Nc1ccc(F)c(-c2cn3cc(NC(=O)OC(C)C)cnc3n2)c1 [Compound 303] | < 4.69 | < 4.30 | 4.75 | –
O=C(Nc1ccc(F)c(-c2cn3cc(-c4ccccc4)cnc3n2)c1)N1CCC1 [Compound 321] | 8.10 | 7.82 | 8.30 | –
CN(CC(F)(F)F)C(=O)Nc1ccc(F)c(-c2cn3cc(C4=CCOCC4)cnc3n2)c1 [Compound 326] | 6.80 | 6.30 | 6.91 | –
Cc1nc(C)c(C(=O)Nc2ccc(F)c(-c3cn4cc(-c5ccccc5)cnc4n3)c2)o1 [Compound 333] | 7.06 | 7.06 | 7.80 | –
Cc1nc(C)c(C(=O)Nc2ccc(F)c(-c3cn4cc(C5=CCOCC5)cnc4n3)c2)o1 [Compound 334] | 7.28 | 7.07 | 7.19 | –
CC(C)(C)OC(=O)N1CC=C(c2cnc3nc(-c4cc(NC(=O)N5CCCC5)ccc4Cl)cn3c2)CC1 [Compound 343, tert-butyl 4-(2-(2-chloro-5-(pyrrolidine-1-carboxamido)phenyl)imidazo[1,2-a]pyrimidin-6-yl)-5,6-dihydropyridine-1(2H)-carboxylate] | 6.97 | 6.51 | 7.13 | –
C[Si](C)(C)CCOCn1cnc(-c2cnc3nc(-c4cc(NC(=O)N5CCCC5)ccc4Cl)cn3c2)c1 [Compound 344] | 7.14 | 6.80 | 7.29 | –
C=C(c1ccccc1)c1cnc2nc(-c3cc(NC(=O)c4oc(C)nc4C)ccc3F)cn2c1 [Compound 346] | 6.45 | 6.31 | 6.80 | –
Cc1nc(C)c(C(=O)Nc2ccc(F)c(-c3cn4cc(C5=CCN(C(=O)OC(C)(C)C)CC5)cnc4n3)c2)o1 [Compound 347] | 6.81 | 6.82 | 7.00 | –
CNc1ccc(-c2cnc3nc(-c4cc(NC(=O)N5CCCC5)ccc4F)cn3c2)cc1 [Compound 351] | 7.15 | 6.89 | 7.02 | –
